Reference: patent US11236049B2, “Amorphous and crystalline forms of IDO inhibitors” (BRISTOL-MYERS SQUIBB COMPANY, priority 2017, dated 2022)
Read-outs that look alike come from different tables or passages of the source. Blank lines part the entries; values can stand above or below the compound they belong to.

Key:
[1] = format: physicochemical
[2] = format: physicochemical; remark: listed apart in the source
Excerpt: There was no evidence of form change, dehydration, or amorphous formation after 8 weeks. There was no change in TGA at 8 weeks in all samples.

[3] = for AUC (Mean) / Dissolution Rate (Mean): 150 mg in 250 mL (0.60 mg/mL API equivalent), 37° C.
Experimental: Microdissolution Microdissolution experiments were conducted in a pIon μDiss Profiler microdissolution instrument (pION μDiss Profiler) with a fiber optic UV monitoring system, as follows: Probes: 2.5 mm probes (5 mm path length) Volume: 15 ml Stirring: 150 rpm Temperature: 37° C. […] The target doses were 150 mg in 250 mL (0.60 mg/mL API equivalent) in FaSSIF (pH 6.5) and FeSSIF (pH 5).

[4] = Solid state stability of Compound 1 free base Form 4; format: physicochemical
Excerpt: The results of those experiments are in the table, below.

[5] = pH solubility of Compound 1 MSA Salt Form 1; format: physicochemical; conditions: 22 °C, aqueous buffer, thermodynamic from solid; from pH solubility profile of MSA Salt Form 1; read-out: Solubility for the free-base
Experimental: Measurements were taken using an Orion ATI Model 370 pH meter. […] To each vial was added 5 mL of various aqueous acidic and basic solutions. Each vial was stoppered and vortexed and sonicated to mix well. The pH of each sample was recorded. […] After 24 hours of stirring, the pH of each sample (as a suspension) was recorded. Suspensions were filtered with 0.2 micron Acrodisc syringe filters. The clear filtrates were collected and vortexed to mix well pH of each filtrated was recorded. pH of suspension and filtrate were nearly identical. A 1.0 mL aliquot of each of the filtrates 25-fold using 50% acetonitrile/50% Milli-Q water, q.w. each flask to 25 mL. […] Samples were assayed using the following HPLC method: Column: […] Mobile phase Solvent A: Water w/0.05% TFA • Solvent B: Acetonitrile w/0.05% TFA […] Column temperature: Ambient RT Detector Wavelength: 250 nm […] Working Concentration: […] Added 20 mL of 100% acetonitrile to the vial. Stoppered, vortexed, and sonicated the vial. […] Transferred the suspension to a 250 mL glass volumetric flask, and washed out the glass vial with 4×20 mL 50% acetonitrile/50% Milli-Q water, transferring each wash into the volumetric flask. All solids dissolved. Q.S. the volumetric flask to 250 mL final volume using 50% acetonitrile/50% Milli Q water, shake to give standard solution at 101.5 mcg/mL.

[6] = 25° C./60% relative humidity, 4-week
[7] = 40° C./75% relative humidity (closed), 4-week
[8] = 40° C./75% relative humidity (open), 4-week
[9] = High intensity light (HIL), 4-week
[10] = solid state stress conditions tested

- form change ([1]; heat stressing at 60° C. after 9 days): converted to Compound 1 MSA Salt Form 1
SMILES: CS(=O)(=O)O.C[C@@H](C(=O)Nc1ccc(Cl)cc1)[C@H]1CC[C@@H](c2ccnc3ccc(F)cc32)CC1 [Amorphous Compound 1 MSA, (R)-N-(4-chlorophenyl)-2-((1S,4S)-4-(6-fluoroquinolin-4-yl)cyclohexyl)propanamide methanesulfonate]
- form change ([1]; heat stressing at 60° C. (Example 8A)): recrystallized to Compound 1 MSA Salt Form 1

- time chemically stable [2]: at least 13.5 weeks
- Area % [2, 6]: 99.90% Area %
- Area % ([2]; 25° C./60% relative humidity, 8-week): 99.90% Area %
- Area % ([2]; 25° C./60% relative humidity, 13.5 week): 99.73% Area %
- Area % [2, 7]: 99.90% Area %
- Area % ([2]; 40° C./75% relative humidity (closed), 8-week): 99.90% Area %
- Area % ([2]; 40° C./75% relative humidity (closed), 13.5 week): 99.62% Area %
- Area % [2, 8]: 99.90% Area %
- Area % ([2]; 40° C./75% relative humidity (open), 8-week): 99.90% Area %
- Area % ([2]; 40° C./75% relative humidity (open), 13.5 week): 99.63% Area %
- Area % ([2]; 50° C., 4-week): 99.90% Area %
- Area % ([2]; 50° C., 8-week): 99.04% Area %
- Area % ([2]; 50° C., 13.5 week): 99.79% Area %
- Area % [2, 9]: 99.1% Area %
- Area % ([2]; RT/RL (room temperature, room light), 4-week): 99.90% Area %
- Area % ([2]; RT/RL (room temperature, room light), 8-week): 99.90% Area %
- Area % ([2]; RT/RL (room temperature, room light), 13.5 week): 99.78% Area %
- evidence of form change, dehydration, or amorphous formation ([2]; after 8 weeks): no evidence
- changes in PXRD ([2]; at 4 weeks or 8 weeks in all samples): No changes
- change in TGA ([2]; at 8 weeks in all samples): no change
- rate of dissolution ([3]; Example 16, FeSSIF): 23 µg/mL/min
- form change on heating ([1]; heated for ˜2 hours): no form change by XRPD
- behaviour on heating ([1]; heating to ˜125° C.): liquefy
- form change on dehydration ([1]; overnight hold at 0% RH): converted to an unstable form
SMILES: C[C@@H](C(=O)Nc1ccc(Cl)cc1)C1CCC(c2ccnc3ccc(F)cc23)CC1.O (stereo partly drawn) [Compound 1 Free Base monohydrate Form 2, (R)-N-(4-chlorophenyl)-2-((1S,4S)-4-(6-fluoroquinolin-4-yl)cyclohexyl)propanamide monohydrate]
- form change on heating ([1]; ˜79 to 80° C. for 1 day or ˜75° C. under nitrogen gas flow for ˜20 hours): partial conversion to other crystalline forms

- dissolution rate compared with Compound 1 MSA Salt Form 1 ([3]; Example 15, FaSSIF, statistically significant difference): slightly faster
- AUC (Mean) ([3]; FaSSIF (pH 6.5)): 14315.281 µg·min/mL
- Dissolution Rate (Mean) ([3]; FaSSIF (pH 6.5)): 4.449 µg/mL/min
- AUC (Mean) ([3]; FeSSIF (pH 5)): 50014.687 µg·min/mL
- Dissolution Rate (Mean) ([3]; FeSSIF (pH 5)): 47.996 µg/mL/min
- Peak Solubility (Mean) ([3]; pH 5): 287.395 µg/mL
- Peak Solubility (Mean) ([3]; pH 6.5): 91.325 µg/mL
SMILES: CS(=O)(=O)O.C[C@@H](C(=O)Nc1ccc(Cl)cc1)[C@H]1CC[C@@H](c2ccnc3ccc(F)cc32)CC1.O [Compound 1 MSA salt monohydrate Form 2, (R)-N-(4-chlorophenyl)-2-((1S,4S)-4-(6-fluoroquinolin-4-yl)cyclohexyl)propanamide methanesulfonic acid salt monohydrate]
- form change ([1]; stressing at 75% relative humidity at 40 C for 6 days): converts to Compound 1 MSA Salt Form 1 and Compound 1 MSA Salt monohydrate form 2

The remaining lines, values behind:

SMILES: C[C@@H](C(=O)Nc1ccc(Cl)cc1)[C@H]1CC[C@@H](c2ccnc3ccc(F)cc32)CC1 [Compound 1 Free Base Amorphous, (R)-N-(4-chlorophenyl)-2-((1S,4S)-4-(6-fluoroquinolin-4-yl)cyclohexyl)propanamide]
- form change on heating ([1]; heated between 67° C. and 150° C.): No crystallization was observed

SMILES: C[C@@H](C(=O)Nc1ccc(Cl)cc1)[C@H]1CC[C@@H](c2ccnc3ccc(F)cc32)CC1 [Compound 1 free base Form 4, (R)-N-(4-chlorophenyl)-2-((1S,4S)-4-(6-fluoroquinolin-4-yl)cyclohexyl)propanamide]
- form change ([1]; melt/quench experiment, XRPD showed no evidence of crystalline material): resulted in a glass with a few fine, birefringent acicular particles
- Area % ([4]; 25° C./60% relative humidity, 2-week): 99.78% Area %
- Area % [4, 6]: 99.77% Area %
- Area % ([4]; 40° C./75% relative humidity (closed), 2-week): 99.78% Area %
- Area % [4, 7]: 99.71 Area %
- Area % ([4]; 40° C./75% relative humidity (open), 2-week): 99.79% Area %
- Area % [4, 8]: 98.46% Area %
- Area % ([4]; 50° C., 2-week): 99.68% Area %
- Area % ([4]; 50° C., 4-week): 99.74% Area %
- Area % ([4]; High intensity light (HIL), 2-week): 99.77% Area %
- Area % [4, 9]: 99.58% Area %
- Area % ([4]; RT/RL (room temperature/room light), 2-week): 99.75% Area %
- Area % ([4]; RT/RL (room temperature/room light), 4-week): 99.70% Area %
- time chemically stable [4, 10]: at least 4 weeks
- time for which no changes were observed [4, 10]: at least 2 weeks

SMILES: C[C@@H](C(=O)Nc1ccc(Cl)cc1)[C@H]1CC[C@@H](c2ccnc3ccc(F)cc32)CC1 [Compound 1, (R)-N-(4-chlorophenyl)-2-((1S,4S)-4-(6-fluoroquinolin-4-yl)cyclohexyl)propanamide]
- solubility at 24 h [5]: 1 to 2 µg/mL
